Laboratory results reported in patent US20140309210A1, “INDAZOLE COMPOUNDS, COMPOSITIONS AND METHODS OF USE THEREOF” (Genentech, Inc., priority 2011, published 2014).

Target: T1, purified ITK (Invitrogen PV3875) (Homo sapiens, UniProt Q08881)
T1 construct: purchased Invitrogen PV3875
T1 sequence (Q08881 1-620): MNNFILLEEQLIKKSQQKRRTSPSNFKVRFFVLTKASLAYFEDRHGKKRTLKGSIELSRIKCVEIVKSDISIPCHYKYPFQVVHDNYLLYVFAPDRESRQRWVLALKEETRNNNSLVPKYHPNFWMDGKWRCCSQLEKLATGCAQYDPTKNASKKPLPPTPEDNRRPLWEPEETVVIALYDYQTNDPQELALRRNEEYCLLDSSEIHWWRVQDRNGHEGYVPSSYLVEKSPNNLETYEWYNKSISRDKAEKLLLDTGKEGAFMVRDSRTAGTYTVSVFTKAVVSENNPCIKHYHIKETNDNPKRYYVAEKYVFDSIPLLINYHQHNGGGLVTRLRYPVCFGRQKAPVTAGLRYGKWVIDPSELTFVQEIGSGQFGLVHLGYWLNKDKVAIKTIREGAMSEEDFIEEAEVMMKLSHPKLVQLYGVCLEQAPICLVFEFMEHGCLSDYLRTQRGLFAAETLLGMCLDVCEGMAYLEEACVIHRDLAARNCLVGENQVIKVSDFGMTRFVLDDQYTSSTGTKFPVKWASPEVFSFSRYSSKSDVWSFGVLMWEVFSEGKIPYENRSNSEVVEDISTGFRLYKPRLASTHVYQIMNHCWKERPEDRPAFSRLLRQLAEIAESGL
Assay: ITK peptide phosphorylation assay (Caliper LabChip or LCMS)
Format: biochemical
Conditions: Table 1, Examples 141-279
Summary of the method: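 Purified human ITK peptide phosphorylation, quenched with EDTA (50 mM final) for Caliper LabChip separation or TCA (5% v/v final) for UPLC-MS/MS MRM quantification. Ki derived via Morrison tight-binding equation, corrected for competitive inhibition using ATP concentration relative to Km,app.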

Ki [nM]	Compound
20.1	Cc1cc2c(C(=O)Nc3cnn(Cc4cccc(C#N)c4)c3)n[nH]c2cc1-c1ccc(N)nc1 [Example 150, 6-(6-amino-3-pyridyl)-N-[1-[(3-cyanophenyl)meth-yl]pyrazol-4-yl]-5-methyl-1H-indazole-3-carboxamide]
16.4	Cc1cc2c(C(=O)Nc3cnn(Cc4cccc(C#N)c4)c3)n[nH]c2cc1-c1cn[nH]c1 [Example 151, N-[1-[(3-cyanophenyl)meth-yl]pyrazol-4-yl]-5-methyl-6-(1H-pyrazol-4-yl)-1H-indazole-3-carboxamide]
12.8	N#Cc1cccc(Cn2cc(NC(=O)c3n[nH]c4cc(-c5ccc(N)nc5)c(F)cc34)cn2)c1 [Example 152, 6-(6-amino-3-pyridyl)-N-[1-[(3-cyanophenyl)meth-yl]pyrazol-4-yl]-5-fluoro-1H-indazole-3-carboxamide]
57.5	N#Cc1cccc(Cn2cc(NC(=O)c3n[nH]c4cc(-c5cccnc5)c(F)cc34)cn2)c1 [Example 153, N-[1-[(3-cyanophenyl)meth-yl]pyrazol-4-yl]-5-fluoro-6-(3-pyridyl)-1H-indazole-3-carboxamide]
112	N#Cc1cccc(Cn2cc(NC(=O)c3n[nH]c4cc(-c5cncnc5)c(F)cc34)cn2)c1 [Example 154, N-[1-[(3-cyanophenyl)meth-yl]pyrazol-4-yl]-5-fluoro-6-pyrimidin-5-yl-1H-indazole-3-carboxamide]
99.9	N#Cc1cccc(Cn2cc(NC(=O)c3n[nH]c4cc(-c5cc[nH]n5)c(F)cc34)cn2)c1 [Example 155, N-[1-[(3-cyanophenyl)meth-yl]pyrazol-4-yl]-5-fluoro-6-(1H-pyrazol-3-yl)-1H-indazole-3-carboxamide]
80.8	Cc1cc2c(C(=O)Nc3cnn(Cc4cccc(C#N)c4)c3)n[nH]c2cc1-c1cc[nH]n1 [Example 156, N-[1-[(3-cyanophenyl)meth-yl]pyrazol-4-yl]-5-methyl-6-(1H-pyrazol-3-yl)-1H-indazole-3-carboxamide]
7.81	CN(C)CCC(c1ccccc1)n1cc(NC(=O)c2n[nH]c3cc(-c4cccnc4)ccc23)cn1 (centres unmarked) [Example 157, N-[1-[3-(dimethylamino)-1-phenyl-propyl]pyrazol-4-yl]-6-(3-pyridyl)-1H-indazole-3-carboxamide]
3.93	O=C(Nc1cnn(Cc2csc(N3CCC(O)C3)n2)c1)c1n[nH]c2cc(-c3cn[nH]c3)ccc12 (centres unmarked) [Example 158, N-[1-[[2-(3-hydroxypyrrolidin-1-yl)thiazol-4-yl]methyl]pyrazol-4-yl]-6-(1H-pyrazol-4-yl)-1H-indazole-3-carboxamide]
3.11	O=C(Nc1cnn(Cc2csc(N3CCC(O)CC3)n2)c1)c1n[nH]c2cc(-c3cn[nH]c3)ccc12 [Example 159, N-[1-[[2-(4-hydroxy-1-piperidyl)thiazol-4-yl]methyl]pyrazol-4-yl]-6-(1H-pyrazol-4-yl)-1H-indazole-3-carboxamide]
4.65	O=C(Nc1cnn(Cc2csc(C3CCNCC3)n2)c1)c1n[nH]c2cc(-c3cn[nH]c3)ccc12 [Example 160, N-[1-[[2-(4-piperidyl)thiazol-4-yl]methyl]pyrazol-4-yl]-6-(1H-pyrazol-4-yl)-1H-indazole-3-carboxamide]
1.15	O=C(Nc1cnn(Cc2cccc(N3CCC(O)C3)c2)c1)c1n[nH]c2cc(-c3cn[nH]c3)ccc12 (centres unmarked) [Example 161, N-[1-[[3-(3-hydroxypyrrolidin-1-yl)phenyl]meth-yl]pyrazol-4-yl]-6-(1H-pyrazol-4-yl)-1H-indazole-3-carboxamide]
0.28	O=C(Nc1cnn(C(CCN2CCOCC2)c2ccccc2)c1)c1n[nH]c2cc(-c3cn[nH]c3)ccc12 (centres unmarked) [Example 162, N-[1-(3-morpholino-1-phenyl-propyl)pyrazol-4-yl]-6-(1H-pyrazol-4-yl)-1H-indazole-3-carboxamide]
1.16	O=C(Nc1cnn(Cc2cncs2)c1)c1n[nH]c2cc(-c3cn[nH]c3)ccc12 [Example 163, 6-(1H-pyrazol-4-yl)-N-[1-(thiazol-5-ylmethyl)pyrazol-4-yl]-1H-indazole-3-carboxamide]
